Source: patent publication US12052991B2, “Substituted pyridinyloxybenzenes and salts thereof and use thereof as herbicidal agents” (Bayer Aktiengesellschaft, priority 2018, dated 2024)

system: Matricaria inodora (MATIN); assay: Herbicidal post-emergence action (Table B7); type: in vivo; conditions: 1280 g/ha; rated visually after about 3 weeks; 100% = plants have died, 0% = like control plants
Summary of the method: (§1)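 Application rates of 1280 or 320 g/ha were tested post-emergence on one-leaf-stage greenhouse plants in sandy loam, using WP or EC formulations with 0.5% additive at 600 L/ha. Activity was rated visually against untreated plants about 3 weeks later.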

SMILES | Post-emergence action against Matricaria inodora (MATIN) [%]
Cc1cccc(Oc2ccc(Cl)cn2)c1-c1cc(C(F)F)no1 [Example 1-18, 5-[2-[(5-Chloro-2-pyridyl)oxy]-6-methylphenyl]-3-(difluoromethyl)isoxazole] | 100

system: Matricaria inodora (MATIN); assay: Herbicidal pre-emergence action, test C (Table C7); type: in vivo; conditions: dosage 320 g/ha; visual scoring after about 3 weeks; 100% = plants have died, 0% = like control plants
Summary of the method: (§2)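 After sowing weed seeds into sandy loam and covering them, the soil surface was treated with aqueous WP or EC preparations containing 0.5% additive, 600 L/ha, at 1280 or 320 g/ha. Scoring was visual, in percent against untreated, at about 3 weeks.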

SMILES | Pre-emergence action against Matricaria inodora (MATIN) [%]
Cc1cccc(Oc2ccc(Cl)cn2)c1-c1cc(C(F)F)no1 [Example 1-18, 5-[2-[(5-Chloro-2-pyridyl)oxy]-6-methylphenyl]-3-(difluoromethyl)isoxazole] | 100

same assay, conditions: dosage 1280 g/ha; visual scoring after about 3 weeks; 100% = plants have died, 0% = like control plants

SMILES | Pre-emergence action against Matricaria inodora (MATIN) [%]
Cc1cccc(Oc2ccc(Cl)cn2)c1-c1cc(C(F)F)no1 [Example 1-18, 5-[2-[(5-Chloro-2-pyridyl)oxy]-6-methylphenyl]-3-(difluoromethyl)isoxazole] | 100

system: Bassia scoparia (KCHSC); assay: Herbicidal post-emergence action (Table B11); type: in vivo; conditions: dosage 320 g/ha; visual rating about 3 weeks after treatment; 100% = plants have died, 0% = like control plants
Summary of the method: as §1

SMILES | Post-emergence action against Bassia scoparia (KCHSC) [%]
Cc1cccc(Oc2ccc(Cl)cn2)c1-c1cc(C(F)F)no1 [Example 1-18, 5-[2-[(5-Chloro-2-pyridyl)oxy]-6-methylphenyl]-3-(difluoromethyl)isoxazole] | 100

same assay, conditions: dosage 1280 g/ha; visual rating about 3 weeks after treatment; 100% = plants have died, 0% = like control plants

SMILES | Post-emergence action against Bassia scoparia (KCHSC) [%]
Cc1cccc(Oc2ccc(Cl)cn2)c1-c1cc(C(F)F)no1 [Example 1-18, 5-[2-[(5-Chloro-2-pyridyl)oxy]-6-methylphenyl]-3-(difluoromethyl)isoxazole] | 100

system: Bassia scoparia (KCHSC); assay: Herbicidal pre-emergence action, test C (Table C11); type: in vivo; conditions: dosage 1280 g/ha, visual scoring vs untreated controls
Summary of the method: as §2

SMILES | Pre-emergence action against Bassia scoparia (KCHSC) [%]
Cc1cccc(Oc2ccc(Cl)cn2)c1-c1cc(C(F)F)no1 [Example 1-18, 5-[2-[(5-Chloro-2-pyridyl)oxy]-6-methylphenyl]-3-(difluoromethyl)isoxazole] | 90

system: Digitaria sanguinalis (DIGSA); assay: Herbicidal pre-emergence action, test C (Table C10); type: in vivo; conditions: dosage 320 g/ha; visual scoring after about 3 weeks; 100% = plants have died, 0% = like control plants
Summary of the method: as §2

SMILES | Pre-emergence action against Digitaria sanguinalis (DIGSA) [%]
Cc1cccc(Oc2ccc(Cl)cn2)c1-c1cc(C(F)F)no1 [Example 1-18, 5-[2-[(5-Chloro-2-pyridyl)oxy]-6-methylphenyl]-3-(difluoromethyl)isoxazole] | 100

same assay, conditions: dosage 1280 g/ha; visual scoring after about 3 weeks; 100% = plants have died, 0% = like control plants

SMILES | Pre-emergence action against Digitaria sanguinalis (DIGSA) [%]
Cc1cccc(Oc2ccc(Cl)cn2)c1-c1cc(C(F)F)no1 [Example 1-18, 5-[2-[(5-Chloro-2-pyridyl)oxy]-6-methylphenyl]-3-(difluoromethyl)isoxazole] | 100

system: Veronica persica (VERPE); assay: Herbicidal pre-emergence action, test C (Table C12); type: in vivo; conditions: dosage 320 g/ha, visual scoring vs untreated controls
Summary of the method: as §2

SMILES | Pre-emergence action against Veronica persica (VERPE) [%]
Cc1cccc(Oc2ccc(Cl)cn2)c1-c1cc(C(F)F)no1 [Example 1-18, 5-[2-[(5-Chloro-2-pyridyl)oxy]-6-methylphenyl]-3-(difluoromethyl)isoxazole] | 100

same assay, conditions: dosage 1280 g/ha, visual scoring vs untreated controls

SMILES | Pre-emergence action against Veronica persica (VERPE) [%]
Cc1cccc(Oc2ccc(Cl)cn2)c1-c1cc(C(F)F)no1 [Example 1-18, 5-[2-[(5-Chloro-2-pyridyl)oxy]-6-methylphenyl]-3-(difluoromethyl)isoxazole] | 100

system: Digitaria sanguinalis (DIGSA); assay: Herbicidal post-emergence action (Table B10); type: in vivo; conditions: dosage 320 g/ha; visual rating about 3 weeks after treatment; 100% = plants have died, 0% = like control plants
Summary of the method: as §1

SMILES | Post-emergence action against Digitaria sanguinalis (DIGSA) [%]
Cc1cccc(Oc2ccc(Cl)cn2)c1-c1cc(C(F)F)no1 [Example 1-18, 5-[2-[(5-Chloro-2-pyridyl)oxy]-6-methylphenyl]-3-(difluoromethyl)isoxazole] | 100

same assay, conditions: dosage 1280 g/ha; visual rating about 3 weeks after treatment; 100% = plants have died, 0% = like control plants

SMILES | Post-emergence action against Digitaria sanguinalis (DIGSA) [%]
Cc1cccc(Oc2ccc(Cl)cn2)c1-c1cc(C(F)F)no1 [Example 1-18, 5-[2-[(5-Chloro-2-pyridyl)oxy]-6-methylphenyl]-3-(difluoromethyl)isoxazole] | 100

system: Veronica persica (VERPE); assay: Herbicidal post-emergence action (Table B12); type: in vivo; conditions: dosage 320 g/ha; visual rating about 3 weeks after treatment; 100% = plants have died, 0% = like control plants
Summary of the method: as §1

SMILES | Post-emergence action against Veronica persica (VERPE) [%]
Cc1cccc(Oc2ccc(Cl)cn2)c1-c1cc(C(F)F)no1 [Example 1-18, 5-[2-[(5-Chloro-2-pyridyl)oxy]-6-methylphenyl]-3-(difluoromethyl)isoxazole] | 100

same assay, conditions: dosage 1280 g/ha; visual rating about 3 weeks after treatment; 100% = plants have died, 0% = like control plants

SMILES | Post-emergence action against Veronica persica (VERPE) [%]
Cc1cccc(Oc2ccc(Cl)cn2)c1-c1cc(C(F)F)no1 [Example 1-18, 5-[2-[(5-Chloro-2-pyridyl)oxy]-6-methylphenyl]-3-(difluoromethyl)isoxazole] | 100

system: Alopecurus myosuroides (ALOMY); assay: Herbicidal pre-emergence action, test C (Table C9); type: in vivo; conditions: dosage 1280 g/ha; visual scoring after about 3 weeks; 100% = plants have died, 0% = like control plants
Summary of the method: as §2

SMILES | Pre-emergence action against Alopecurus myosuroides (ALOMY) [%]
Cc1cccc(Oc2ccc(Cl)cn2)c1-c1cc(C(F)F)no1 [Example 1-18, 5-[2-[(5-Chloro-2-pyridyl)oxy]-6-methylphenyl]-3-(difluoromethyl)isoxazole] | 90

system: Alopecurus myosuroides (ALOMY); assay: Herbicidal post-emergence action (Table B9); type: in vivo; conditions: 320 g/ha; rated visually after about 3 weeks; 100% = plants have died, 0% = like control plants
Summary of the method: as §1

SMILES | Post-emergence action against Alopecurus myosuroides (ALOMY) [%]
Cc1cccc(Oc2ccc(Cl)cn2)c1-c1cc(C(F)F)no1 [Example 1-18, 5-[2-[(5-Chloro-2-pyridyl)oxy]-6-methylphenyl]-3-(difluoromethyl)isoxazole] | 100

same assay, conditions: 1280 g/ha; rated visually after about 3 weeks; 100% = plants have died, 0% = like control plants

SMILES | Post-emergence action against Alopecurus myosuroides (ALOMY) [%]
Cc1cccc(Oc2ccc(Cl)cn2)c1-c1cc(C(F)F)no1 [Example 1-18, 5-[2-[(5-Chloro-2-pyridyl)oxy]-6-methylphenyl]-3-(difluoromethyl)isoxazole] | 100
